What all share (assay type): cell-based
The target in series [1] is T1, BRD4 (Homo sapiens, UniProt O60885).
T1 construct: host or cells: HEK293 transiently transfected with the BioTAC plasmid
Nature of the series: BioTAC proximity labeling, streptavidin pulldown and western blot for BRD4. Conditions: variable concentrations of free (+)-JQ1 against 1 μM bifunctional (+)-JQ1 recruiters, all timepoints. The protocol:
Next bifunctional molecule guided-proximity labeling experiments were performed using validated reagents. HEK293 cells transiently transfected with mTurbo-FKBP12F36V were treated with 100 μM biotin, 1 μM bifunctional (+)-JQ1 recruiters, and variable concentrations of free (+)-JQ1 to off-compete the bifunctional molecule and rescue biotinylation. Biotinylated proteins were isolated from cell lysates via streptavidin bead pulldown and analyzed by western blot for BRD4, a primary target of (+)-JQ1.
(§1) 0.6 million HEK293 cells were plated into wells containing 1 mL of complete media (DMEM, 10% FBS, 1% pen/strep) and incubated overnight. Cells were transiently transfected with 100 μL of OptiMEM media containing 1 μg of BioTAC plasmid and 3 μL of TransIT-2020 transfection reagent (Mirus, MIR5400) for 24 hr. Following a media change, cells were pre-treated with parental molecules or DMSO for 10 min, then treated with bifunctional compound for 10 min, and finally labeled in 100 μM biotin for the indicated time. Cells were washed twice with DPBS then harvested into 1.5 mL tubes. […] Protein concentration was determined by BCA assay (Thermo, 23225), then 100 ug protein was rotated overnight at 4° C. with 8 μL of streptavidin magnetic beads (Thermo, 88817) that had been prewashed twice in RIPA lysis buffer. […]
On the technique in general: In western blotting, separated proteins are transferred to a membrane and probed.

For series [2], the target named is T2, NLuc-FKBP12F36V (Homo sapiens, UniProt P62942, F37V).
T2 construct: expressed in transfected cells
T2 sequence (P62942 2-108 F37V limits assumed): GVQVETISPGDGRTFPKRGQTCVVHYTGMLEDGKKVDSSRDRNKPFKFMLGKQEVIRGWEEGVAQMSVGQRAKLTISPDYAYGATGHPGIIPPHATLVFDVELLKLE
Nature of the series: FKBP12F36V cellular target engagement assay (competition with dTAG-13, NLuc/FLuc signal). Particulars: for competitive displacement of dTAG-13 (FKBP12F36V cellular target engagement): mean±S.D. of n=3 technical replicates, FIG. 4D-F. The source says: This method, named the biotin targeting chimera (BioTAC) system, uses bifunctional molecules composed of a compound-of-interest linked to selective FKBP12F36V recruiter orthoAP1867, to recruit a ligandable proximity labeling enzyme (mTurbo-FKBP12F36V) to compound-bound complexes enabling their biotinylation and subsequent affinity purification (FIG. TA-B). To benchmark the BioTAC system for accurate detection of the direct targets of ligands the well-characterized BET protein inhibitor (+)-JQ1, which potently binds BRD2, BRD3 and BRD4 (as well as the testes-specific BET protein BRDT), was selected as a test case. A series of bifunctional molecules consisting of (+)-JQ1 conjugated to […] were synthesized via a variable linker (FIG. 1B, FIG. 4A-C). (+)-JQ1-bifunctional molecule cell permeability was measured using an FKBP12F36V cellular target engagement assay adapted from Nabet et. al Nat Commun 11, 4687 (2020). Briefly, FKBP12F36V binding molecules compete with an FKBP12F36V targeting PROTAC (dTAG-13), for NLuc-FKBP12F36V occupancy, rescuing degradation and resulting in an increase in NLuc/FLuc (control) signal relative to DMSO-treated cells. All synthesized compounds were comparably cell permeable (FIG. 4D-E).

The target in series [3] is T3, MEK1 (Homo sapiens, UniProt Q02750).
T3 construct: Immunoblot analysis of MEK1/2 enrichment following treatment of HEK293 cells; host or cells: HEK293 transiently transfected with the BioTAC plasmid
T3 sequence (Q02750 whole entry): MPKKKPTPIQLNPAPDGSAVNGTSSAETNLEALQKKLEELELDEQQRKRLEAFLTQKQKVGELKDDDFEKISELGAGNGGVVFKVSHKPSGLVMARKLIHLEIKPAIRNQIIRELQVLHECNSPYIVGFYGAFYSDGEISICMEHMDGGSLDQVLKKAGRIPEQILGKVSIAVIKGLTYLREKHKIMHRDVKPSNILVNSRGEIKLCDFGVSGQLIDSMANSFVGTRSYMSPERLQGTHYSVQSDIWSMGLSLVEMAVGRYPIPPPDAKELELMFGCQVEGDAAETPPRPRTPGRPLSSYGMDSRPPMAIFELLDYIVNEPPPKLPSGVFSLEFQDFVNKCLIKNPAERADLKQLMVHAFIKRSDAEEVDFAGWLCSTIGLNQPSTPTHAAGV
T3 sequence (as listed by the source partner): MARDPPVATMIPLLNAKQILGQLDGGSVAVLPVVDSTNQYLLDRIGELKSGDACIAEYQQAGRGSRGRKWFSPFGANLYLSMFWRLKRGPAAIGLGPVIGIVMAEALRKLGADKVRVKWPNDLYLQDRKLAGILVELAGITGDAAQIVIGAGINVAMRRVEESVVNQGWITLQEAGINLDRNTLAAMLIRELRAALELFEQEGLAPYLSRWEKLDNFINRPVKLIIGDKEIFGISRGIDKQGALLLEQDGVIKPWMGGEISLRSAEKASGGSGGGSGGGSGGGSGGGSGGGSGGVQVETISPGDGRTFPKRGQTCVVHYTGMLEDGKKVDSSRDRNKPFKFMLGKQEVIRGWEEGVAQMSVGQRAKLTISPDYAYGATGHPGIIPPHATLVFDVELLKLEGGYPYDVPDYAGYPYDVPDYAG
Nature of the series: BioTAC proximity labeling, streptavidin enrichment and immunoblot for MEK1. Particulars: HEK293 with miniTurbo-FKBP12F36V, 100 μM biotin, dose and time point optimization. The protocol: (§2) Bifunctional trametinib analogue JWJ-01-280/Cpd2 was synthesized, with a linker attachment informed by a reported trametinib-derived BRET probe named Tram-bo (FIG. 3B). […] The ability of the BioTAC system to detect both known interactors of trametinib was evaluated by Western blot, as described above.
as §1

Series [4] deals with T4, MEK1:trametinib:KSR1 complex (Homo sapiens, UniProt Q02750).
T4 construct: Immunoblot analysis of MEK1 and KSR1 following treatment of HEK293 cells; host or cells: HEK293 transiently transfected with the BioTAC plasmid
T4 sequence (Q02750 whole entry, one chain of several): as the sequence (Q02750 whole entry) above
In words: BioTAC detection of molecular glue complex by immunoblot of MEK1 and KSR1. Particulars: 4 hr treatment with 1 μM, 100 μM biotin. The method, then: as §2, §1

“Also recorded” adds a separate entry of the source.

(+)-JQ1 [reference compound]: in series [1], the “BRD4 pulldown in presence of free competitor” value is reported as “dose dependent decrease in BRD4 pulldown”.

In the case of `CC[C@H](C(=O)N1CCCC[C@H]1C(=O)O[C@H](CCc1ccc(OC)c(OC)c1)c1ccccc1OCC(=O)NCCCCCCCCNC(=O)C[C@@H]1N=C(c2ccc(Cl)cc2)c2c(sc(C)c2C)-n2c(C)nnc21)c1cc(OC)c(OC)c(OC)c1` [JWJ-01-255, (R)-1-(2-(2-((8-(2-((S)-4-(4-Chlorophenyl)-2,3,9-trimethyl-6H-thieno[3,2-f][1,2,4]triazolo[4,3-a][1,4]diazepin-6-yl)acetamido)octyl)amino)-2-oxoethoxy)phenyl)-3-(3,4-dimethoxyphenyl)propyl (S)-1-((S)-2-(3,4,5-trimethoxyphenyl)butanoyl)piperidine-2-carboxylate], in series [2], the “competitive displacement of dTAG-13 (FKBP12F36V cellular target engagement)” value is reported as “competitive displacement of dTAG-13”. `CC[C@H](C(=O)N1CCCC[C@H]1C(=O)O[C@H](CCc1ccc(OC)c(OC)c1)c1ccccc1OCC(=O)NCCOCCOCCC(=O)Nc1cccc(-n2c(=O)n(C3CC3)c(=O)c3c(Nc4ccc(I)cc4F)n(C)c(=O)c(C)c32)c1)c1cc(OC)c(OC)c(OC)c1` [Cpd2, (R)-1-(2-(2-((2-(2-(3-((3-(3-Cyclopropyl-5-((2-fluoro-4-iodophenyl)amino)-6,8-dimethyl-2,4,7-trioxo-3,4,6,7-tetrahydropyrido[4,3-d]pyrimidin-1(2H)-yl)phenyl)amino)-3-oxopropoxy)ethoxy)ethyl)amino)-2-oxoethoxy)phenyl)-3-(3,4-dimethoxyphenyl)propyl (S)-1-((S)-2-(3,4,5-trimethoxyphenyl)butanoyl)piperidine-2-carboxylate]: the “MEK1 labelling (immunoblot)” value in series [3] was “efficient MEK1 labelling”. Besides, the “detection/enrichment of MEK1:trametinib:KSR1 complex (immunoblot of MEK1 and KSR1)” value in series [4] is “detected; also recorded: successful enrichment and competition with trametinib”. Further, the “cell permeability measured by FKBP12F36V cellular target engagement assay” value in series [2] (rescue of NLuc-FKBP12F36V degradation by dTAG-13, relative to DMSO) was “less cell permeable than the (+)-JQ1 derivatives”. As for `CC[C@H](C(=O)N1CCCC[C@H]1C(=O)O[C@H](CCc1ccc(OC)c(OC)c1)c1ccccc1OCC(=O)NCCOCCOCCNC(=O)C[C@@H]1N=C(c2ccc(Cl)cc2)c2c(sc(C)c2C)-n2c(C)nnc21)c1cc(OC)c(OC)c(OC)c1` [JWJ-01-236, (R)-1-(2-((14-((S)-4-(4-Chlorophenyl)-2,3,9-trimethyl-6H-thieno[3,2-f][1,2,4]triazolo[4,3-a][1,4]diazepin-6-yl)-2,13-dioxo-6,9-dioxa-3,12-diazatetradecyl)oxy)phenyl)-3-(3,4-dimethoxyphenyl)propyl (S)-1-((S)-2-(3,4,5-trimethoxyphenyl)butanoyl)piperidine-2-carboxylate], the “competitive displacement of dTAG-13 (FKBP12F36V cellular target engagement)” value in series [2] is reported as “competitive displacement of dTAG-13”.

The values above are taken from patent US20260063641A1, “COMPOSITIONS AND METHODS FOR LABELING AND DETECTING BINDING PARTNERS” (UNIVERSITY OF UTAH RESEARCH FOUNDATION, priority 2022, published 2026).
